Assay type in all cases: cell-based
In assay [1] the test system is NCI-H524 non-small cell lung cancer cells. Kind of assay: CellTiter-Glo luminescent cell viability assay, NCI-H524 drug screening plate. The note with it: for IC50: NCI-H524 cells, CellTiter-Glo. As for the experimental part:
(§1) In example 1, CELLTITER-GLO was used to test nicardipine against non-small cell lung cancer. n) NCI-H524 cells and NCI-H446 cells were handled as described above, and NCI-H524 96-well cell culture plates and NCI-H446 96-well cell culture plates were obtained, respectively. The complete medium for NCI-H524 cells was RPMI-1640 (a live product), Cat #A1049101, with a cells/well density of 16000. a) DMSO was used to dilute the analyte nicardipine to 20 mM for use. b) 79 μL of the 20 mM analyte prepared in step a) was added to the first well in the first row of the dilution plate, and then 54 μL of DMSO solution was added to the second through ninth wells of the first row. 25 μL of solution was aspirated from the first to the second well, and after mixing well 25 μL of solution was aspirated from the second to the third well, and this was repeated until the 9th well in order to ensure that 3.16 dilution of the medication would be carried out one-by-one. b) 95 μl of cell-specific complete medium was added to the working plate, each medication to 9 wells. […] Testing • a) Before testing, the NCI-H524 96-well drug screening plate and the NCI-H446 96-well drug screening plate described in 3 above were stabilized to room temperature for 20-30 minutes. • b) An inverted microscope was used to observe the conditions of each group of cells in the culture plate and their death patterns, and any abnormal conditions were noted and retested. • c) 100 μl of CellTiter-Glo reagent (prepared as described in 1 above) was added to all drug screening plates and mixed evenly. • d) It was thoroughly oscillated in a 96-well microplate oscillator for 2 minutes to allow the cells to undergo full lysis. • e) It was stored away from light at room temperature for 15 minutes before carrying out luminescent signal detection to ensure signal stability. • f) An EnSpire multi-function plate reader was used at 570 nm to read the luminescent signals. • g) Data was processed and analyzed.

Assay [2] has as its system NCI-H810 human lung cancer cells. The experiment in a line: CellTiter-Glo luminescent cell viability assay, NCI-H810 cells (same method). Here is the method:
(§2) In the examples below, the product sources for the NCI-H524 non-small cell lung cancer cells, the NCI-H446 small-cell lung cancer cells, the SNU-449 human hepatoma cells, and the NCI-H810 human lung cancer cells, are as follows: c) The NCI-H524 96 well cell plates and the NCI-H446 96-well cell plates prepared in step 1 were removed from the incubator, and 10 μl of the cell culture media (10× final concentration) with varying drug concentrations as described in b) above was added to the NCI-H524 96-well cell culture and the NCI-H446 96-well cell culture plate row-by-row as shown in FIG. 1. It was placed into a CO2 incubator at 37° C. for 72 hours, obtaining the NCI-H524 96-well drug screening plate and the NCI-H446 96-well drug screening plate. • a) The CellTiter-Glo reagent buffer was thawed before using and stabilized to room temperature for use. • b) The CellTiter-Glo reagent frozen substrate was thawed before using and stabilized to room temperature for use. • c) 100 ml of stabilized CellTiter-Glo buffer was added to the container with CellTiter-Glo reagent frozen substrate to adequately resuspend it to form an enzyme/substrate mixture, also referred to as the CellTiter-Glo assay reagent. • d) It was gently mixed and vortexed and inverted multiple times to achieve a uniform solution. In general, the CellTiter-Glo substrate reagent will adequately dissolve within 1 minute. […]

For assay [3], the system named is NCI-H446 small-cell lung cancer cells. The experiment in a line: CellTiter-Glo luminescent cell viability assay, NCI-H446 drug screening plate. To be noted: for IC50: NCI-H446 cells, CellTiter-Glo. Here is the method:
as §1, with “for NCI-H446” for “for NCI-H524”, “of 8000.” for “of 16000.”
On the technique in general: ATP-based viability assays read luminescence as a measure of living cells.

The subject of assay [4] is SNU-449 human hepatoma cells. Kind of assay: CellTiter-Glo luminescent cell viability assay, SNU-449 cells (same method). As for the experimental part:
as §2

The results in this text go back to patent US12427139B2, “Applications for nicardipine in preparing anti-lung cancer products” (SHANGHAI JIAO TONG UNIVERSITY, priority 2015, dated 2025).

For orientation: IC50 means the concentration that inhibits the measured activity by half. The EC50 is the concentration at which the effect is half-maximal. In the case of `COC(=O)C1=C(C)NC(C)=C(C(=O)OCCN(C)Cc2ccccc2)C1c1cccc([N+](=O)[O-])c1` (centres unmarked) [nicardipine], the IC50 in assay [1] (Homo sapiens, NCI-H524, 72 h) is 18.6 µM; in assay [1] (72 hours) it was 18.6 µM; in assay [2] it was at least 100 µM; in assay [3] (Homo sapiens, NCI-H446, 72 h), 18.4 µM; in assay [3] (72 hours) it was 18.4 µM; in assay [4], at least 100 µM. The EC50 in assay [1] (Homo sapiens, FIG. 2, nicardipine sensitivity to non-small cell lung cancer (NCI-H524), 72 hours) came to 20.3 µM; in assay [3] (Homo sapiens, FIG. 3, nicardipine sensitivity to small cell lung cancer (NCI-H446), 72 hours), 18 µM.
